Data reported in US9611263B2, “Compounds that modulate intracellular calcium” (CALCIMEDICA, INC., priority 2013, dated 2017).

Assays:
[1] = target: T1, Orai1/STIM1 (Homo sapiens, UniProt Q96D31); assay: Fluorescence-based assay of store-operated calcium entry in Orai1/STIM1 stable cells; type: cell-based; conditions: HEK-293 cells stably expressing human STIM1 and Orai1; 50% inhibition of Peak-Basal fluorescence signal; read-out: Orai1/STIM1 (IC50, μmol)
T1 construct: expressed in transfected cells
Description: A. Fluorescence-Based Assay of Store-Operated Calcium Entry in Orai1/STIM1 Stable Cells.
Cells stably expressing recombinant human STIM1 and Orai1 are generated by transfecting a human Orai1 expression plasmid (pcDNA3.1-Orai1-cmyc) into HEK-293 cells stably overexpressing human STIM1 (Roos et al. 2005 JCB 169(3): 435-445). Colonies of cells stably expressing both STIM1 and Orai1 proteins are selected and then subcloned by limiting dilution. Cells were cultured at 37° C./6% CO2 in complete medium with 10% FBS and appropriate selection markers.
The day prior to performing the assay Orai1/STIM1 stable cells are plated in 50 μL of complete medium at 90-95% confluence in a 384 well plate. Cells are grown at 37° C./6% CO2 overnight. On the day of the assay, 1.5 μM fluo-4-AM (Invitrogen) in complete medium is added to the cells, which are then incubated for 1 hour at RT. Cells are washed once in Ca^2+-free HBSS (Hank's buffered saline solution) and 35 μl of Ca^2+-free HBSS is added to each well. Test compounds are added to wells in a 10 μL Ca^2+-free HBSS solution, prepared at 4.5× the desired final concentration, and incubated for 30 minutes at RT. The initial baseline fluorescence signal is then measured with a FLIPR^384 (Molecular Devices) plate reader. Calcium entry is initiated by adding 5 μl of 10× CaCl2 (10 mM) in HBSS, and changes in cellular fluorescence are measured with the FLIPR^384 plate reader. In each well, the magnitude of the fluorescence signal as a result of calcium entry into the cell is determined by calculating the difference between the peak fluorescence signal measured after calcium addition and the initial baseline fluorescence signal (designated Peak-Basal). IC50 values are typically calculated as the concentration that inhibited 50% of the Peak-Basal signal.

[2] = tested on: RBL-2H3 cells; assay: Fluorescence-based assay of store-operated calcium entry in RBL-2H3 cells; type: cell-based, rat; conditions: Rattus norvegicus, RBL-2H3; thapsigargin; 50% inhibition of Upslope; read-out: RBL-2H3 (IC50, μmol)
Description: B. Fluorescence-Based Assay of Store-Operated Calcium Entry in RBL-2H3 Cells.
RBL-2H3 cells are obtained from ATCC and maintained in complete medium with 10% FBS at 37° C./6% CO2.
The day prior to performing the assay, RBL-2H3 cells are plated in 50 μL of complete medium in a 384 well plate. Cells are grown at 37° C./6% CO2 overnight and grow to 50-60% confluence by the next day. On the assay day, 1.5 μM Fluo-4-AM dye (Invitrogen) in complete medium is added and incubated for 1 hour at RT. Cells are washed twice in Ca^2+-free HBSS buffer and 35 μL Ca^2+-free HBSS buffer is added to each well. 10 μL of a test compound prepared in a Ca^2+-free HBSS solution at 4.5× of the desired concentration is added to a well and incubated for 5 minutes at RT. 10 μL of thapsigargin prepared in a Ca^2+-free HBSS solution at 5.5× of the desired concentration (5.5 uM) is added to each well and incubated for an additional 25 minutes. The initial baseline fluorescence signal is measured with a FLIPR^384 (Molecular Devices) plate reader. 5 μL of 12× calcium in HBSS (12 mM) is added and changes in cellular fluorescence are measured with the FLIPR^384 plate reader. In each well, the change in the fluorescent signal as a function of time due to calcium entry into the cell is determined by calculating the difference between the fluorescent signal measured 7 seconds after calcium addition and the initial baseline fluorescence signal at time zero (t=0). This parameter is designated Upslope. The IC50 value is calculated as the concentration at which 50% of the Upslope is inhibited.

T1 sequence (Q96D31 whole entry): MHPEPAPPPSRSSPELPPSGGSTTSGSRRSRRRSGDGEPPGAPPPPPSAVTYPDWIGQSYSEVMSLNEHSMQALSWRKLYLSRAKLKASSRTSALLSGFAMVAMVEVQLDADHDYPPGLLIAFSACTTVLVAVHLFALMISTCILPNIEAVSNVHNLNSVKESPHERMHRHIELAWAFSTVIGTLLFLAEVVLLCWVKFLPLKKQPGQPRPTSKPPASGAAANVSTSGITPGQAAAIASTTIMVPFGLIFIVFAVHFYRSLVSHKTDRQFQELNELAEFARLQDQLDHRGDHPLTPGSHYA

| Structure (SMILES) | IC50 [1] [nM] | IC50 [2] [nM] |
| --- | --- | --- |
| O=C(Nc1ccc(-c2cn(-c3nccs3)nc2C2CC2)c(F)c1)c1c(F)cc(F)cc1F [Example 43, N-(4-(3-cyclopropyl-1-(thiazol-2-yl)-1H-pyrazol-4-yl)-3-fluorophenyl)-2,4,6-trifluorobenzamide] | > 1200 | < 600 |
| Cc1cn(-c2nccs2)nc1-c1ccc(NC(=O)c2c(F)cccc2F)cc1F [Example 66, 2,6-difluoro-N-(3-fluoro-4-(4-methyl-1-(thiazol-2-yl)-1H-pyrazol-3-yl)phenyl)benzamide] | > 1200 | < 600 |
| Cc1cccc(F)c1C(=O)Nc1ccc(-c2cn(-c3ccccc3F)nc2C)cn1 [Example 59, 2-fluoro-N-(5-(1-(2-fluorophenyl)-3-methyl-1H-pyrazol-4-yl)pyridin-2-yl)-6-methylbenzamide] | < 600 | < 600 |
| CCc1nn(-c2nccs2)cc1-c1ccc(NC(=O)c2c(F)cc(F)cc2F)nc1 [Example 37, N-(5-(3-ethyl-1-(thiazol-2-yl)-1H-pyrazol-4-yl)pyridin-2-yl)-2,4,6-trifluorobenzamide] | < 600 | < 600 |
| Cc1nn(-c2nccs2)cc1-c1cnc(NC(=O)c2c(F)ccc(F)c2F)s1 [Example 67, 2,3,6-trifluoro-N-(5-(3-methyl-1-(thiazol-2-yl)-1H-pyrazol-4-yl)thiazol-2-yl)benzamide] | 600 to 1200 | < 600 |
| O=C(Nc1ccc(-c2cn(-c3nccs3)nc2C2CC2)c(F)c1)c1c(F)cccc1F [Example 41, N-(4-(3-cyclopropyl-1-(thiazol-2-yl)-1H-pyrazol-4-yl)-3-fluorophenyl)-2,6-difluorobenzamide] | > 1200 | < 600 |
| Cc1nn(-c2nccs2)cc1-c1ccc(NC(=O)c2ccccc2OC(F)F)cc1 [Example 5, 2-(difluoromethoxy)-N-(4-(3-methyl-1-(thiazol-2-yl)-1H-pyrazol-4-yl)phenyl)benzamide] | < 600 | < 600 |
| Cc1cccc(F)c1C(=O)Nc1ccc(-c2cn(-c3nccs3)nc2C)cn1 [Example 19, 2-fluoro-6-methyl-N-(5-(3-methyl-1-(thiazol-2-yl)-1H-pyrazol-4-yl)pyridin-2-yl)benzamide] | < 600 | < 600 |
| O=C(Nc1cnc(-c2cn(-c3nccs3)nc2C2CC2)cn1)c1ccccc1F [Example 50, N-(5-(3-cyclopropyl-1-(thiazol-2-yl)-1H-pyrazol-4-yl)pyrazin-2-yl)-2-fluorobenzamide] | < 600 | < 600 |
| Cc1cccc(F)c1C(=O)Nc1ccc(-c2cn(-c3nccs3)nc2C)c(F)c1 [Example 12, 2-fluoro-N-(3-fluoro-4-(3-methyl-1-(thiazol-2-yl)-1H-pyrazol-4-yl)phenyl)-6-methylbenzamide] | 600 to 1200 | < 600 |
| CCc1nn(-c2nccs2)cc1-c1ccc(NC(=O)c2c(F)cccc2F)nc1 [Example 35, N-(5-(3-ethyl-1-(thiazol-2-yl)-1H-pyrazol-4-yl)pyridin-2-yl)-2,6-difluorobenzamide] | < 600 | < 600 |
| Cc1nn(-c2nccs2)cc1-c1ccc(NC(=O)c2c(F)cccc2F)nc1 [Example 18, 2,6-difluoro-N-(5-(3-methyl-1-(thiazol-2-yl)-1H-pyrazol-4-yl)pyridin-2-yl)benzamide] | < 600 | < 600 |
| CCc1nn(-c2nccs2)cc1-c1ccc(NC(=O)c2cc(F)nc(F)c2)cc1F [Example 34, N-(4-(3-ethyl-1-(thiazol-2-yl)-1H-pyrazol-4-yl)-3-fluorophenyl)-2,6-difluoroisonicotinamide] | > 1200 | < 600 |
| N#Cc1nn(-c2cc(F)ccc2F)cc1-c1ccc(NC(=O)c2c(F)cccc2F)nc1 [Example 62, N-(5-(3-cyano-1-(2,5-difluorophenyl)-1H-pyrazol-4-yl)pyridin-2-yl)-2,6-difluorobenzamide] | 600 to 1200 | < 600 |
| Cc1nn(-c2nccs2)cc1-c1cnc(NC(=O)c2ccc(F)c(F)c2F)cn1 [Example 29, 2,3,4-trifluoro-N-(5-(3-methyl-1-(thiazol-2-yl)-1H-pyrazol-4-yl)pyrazin-2-yl)benzamide] | > 1200 |  |
| Cc1cccc(F)c1C(=O)Nc1cnc(-c2cn(-c3nccs3)nc2C)cn1 [Example 26, 2-fluoro-6-methyl-N-(5-(3-methyl-1-(thiazol-2-yl)-1H-pyrazol-4-yl)pyrazin-2-yl)benzamide] | < 600 | < 600 |
| O=C(Nc1ccc(-c2cn(-c3nccs3)nc2C(F)(F)F)cn1)c1c(F)ccc(F)c1F [Example 53, 2,3,6-trifluoro-N-(5-(1-(thiazol-2-yl)-3-(trifluoromethyl)-1H-pyrazol-4-yl)pyridin-2-yl)benzamide] | 600 to 1200 | < 600 |
| Cc1nn(-c2nccs2)cc1-c1cnc(NC(=O)c2c(F)cccc2F)cn1 [Example 24, 2,6-difluoro-N-(5-(3-methyl-1-(thiazol-2-yl)-1H-pyrazol-4-yl)pyrazin-2-yl)benzamide] | < 600 | < 600 |
| Cc1nn(-c2ccccc2F)cc1-c1ccc(NC(=O)c2ccccc2OC(F)F)nc1 [Example 61, 2-(difluoromethoxy)-N-(5-(1-(2-fluorophenyl)-3-methyl-1H-pyrazol-4-yl)pyridin-2-yl)benzamide] | > 1200 | > 1200 |
| O=C(Nc1cnc(-c2cn(-c3nccs3)nc2C2CC2)cn1)c1c(F)ccc(F)c1F [Example 48, N-(5-(3-cyclopropyl-1-(thiazol-2-yl)-1H-pyrazol-4-yl)pyrazin-2-yl)-2,3,6-trifluorobenzamide] | > 1200 | < 600 |
| O=C(Nc1ccc(-c2cn(-c3nccs3)nc2C(F)(F)F)c(F)c1)c1c(F)cccc1F [Example 51, 2,6-difluoro-N-(3-fluoro-4-(1-(thiazol-2-yl)-3-(trifluoromethyl)-1H-pyrazol-4-yl)phenyl)benzamide] | > 1200 | < 600 |
| O=C(Nc1ccc(-c2cn(-c3nccs3)nc2C2CC2)c(F)c1)c1c(F)ccc(F)c1F [Example 42, N-(4-(3-cyclopropyl-1-(thiazol-2-yl)-1H-pyrazol-4-yl)-3-fluorophenyl)-2,3,6-trifluorobenzamide] | 600 to 1200 | < 600 |
| Cc1nn(-c2nccs2)cc1-c1cnc(NC(=O)c2c(F)cc(F)cc2F)cn1 [Example 28, 2,4,6-trifluoro-N-(5-(3-methyl-1-(thiazol-2-yl)-1H-pyrazol-4-yl)pyrazin-2-yl)benzamide] | < 600 | < 600 |
| O=C(Nc1ccc(-c2cn(-c3nccs3)nc2C2CC2)cn1)c1c(F)ccc(F)c1F [Example 45, N-(5-(3-cyclopropyl-1-(thiazol-2-yl)-1H-pyrazol-4-yl)pyridin-2-yl)-2,3,6-trifluorobenzamide] | 600 to 1200 | < 600 |
| Cc1nn(-c2nccs2)cc1-c1cnc(NC(=O)c2ccccc2F)cn1 [Example 25, 2-fluoro-N-(5-(3-methyl-1-(thiazol-2-yl)-1H-pyrazol-4-yl)pyrazin-2-yl)benzamide] | < 600 | < 600 |
| CCc1nn(-c2nccs2)cc1-c1cnc(NC(=O)c2c(F)cccc2F)cn1 [Example 38, N-(5-(3-ethyl-1-(thiazol-2-yl)-1H-pyrazol-4-yl)pyrazin-2-yl)-2,6-difluorobenzamide] | < 600 | < 600 |
| Cc1nn(-c2nccs2)cc1-c1ccc(NC(=O)c2ccc(F)c(F)c2F)nc1 [Example 22, 2,3,4-trifluoro-N-(5-(3-methyl-1-(thiazol-2-yl)-1H-pyrazol-4-yl)pyridin-2-yl)benzamide] | 600 to 1200 |  |
